{"source": "patent US8987195B2", "about": "(priority 2012, dated 2015)", "data": [{"target": "HCV NS3/4A protease genotype 1b (Hepatitis C virus genotype 1b, UniProt P26663)", "experiment": "HCV NS3/4A protease time-resolved fluorescence (TRF) assay, Ki against genotype 1b", "assay_type": "biochemical", "conditions": "IC50 [gt-1b] (nM), NS3/4A genotype 1b, enzyme 0.2 nM", "description": "(§1) Measuring NS3/4A Inhibitory Activity (Ki) Against Genotype 1b, Against A156T Mutants and Against Genotype 3a\n(§2) One assay for measuring inhibitory activity is HCV NS3 protease time-resolved fluorescence (TRF) assay as described below and in Mao et al., Anal. Biochem. 373:1-8, 2008 and International Patent Application Publication WO 2006/102087. A NS3 protease assay can be performed, for example, in a final volume of 20 μl assay buffer containing 50 mM HEPES, pH 7.5, 150 mM NaCl, 15% glycerol, 0.15% TRITON X-100, 10 mM DTT, and 0.1% PEG 8000. NS3 and NS4A protease is pre-incubated with various concentrations of inhibitors in DMSO for 30 min. The reaction is initiated by adding the TRF peptide substrate (final concentration 25 nM). NS3 mediated hydrolysis of the substrate was run for 2.5 hours at room temperature. Product fluorescence is detected using A Pherastar Plus plate reader (BMG) or Envision (Perkin Elmer Life and Analytical Sciences with excitation at 340 nm and emission at 615 nm using the appropriate delay time optimized for the europium fluorescence probe. Testing concentrations of different enzyme forms are selected to result in a signal to background ratio (S/B) of 10-30. IC50 values are derived using a standard four-parameter fit to the data. Ki values are derived from IC50 values using the following formula, IC50=Ki(1+[S]/KM), Eqn (1), where [S] is the concentration of substrate peptide in the reaction and KM is the Michaelis constant. See P. Gallinari et al., 38 BIOCHEM. 5620-32 (1999); P. Gallinari et al., 72 J. VIROL. 6758-69 (1998); M. Taliani et al., 240 ANAL. BIOCHEM. 60-67 (1996); Mao et al., Analytical Biochemistry 373: 1-8, 2008.\n(§3) The assay described above was run against genotype 1b at a concentration of 0.2 nM, against A156T mutant strains at a concentration of 0.4 nM, and against genotype 3a at a concentration of 0.025 nM.", "units": {"IC50": "nM"}, "values": [{"smiles": "COc1ccc2nc(C(F)(F)F)c3c(c2c1)OC[C@]1(C[C@H]2C(=O)N[C@]4(C(=O)NS(=O)(=O)C5(C)CC5)C[C@H]4/C=C\\CCCCC[C@H](NC(=O)OC(C)(C)C)C(=O)N2C1)O3", "note": "[Example 8, tert-Butyl ((2′R,6′S,13a′S,14a′R,16a′S,Z)-9-methoxy-14a′-(((1-methylcyclopropyl)sulfonyl)carbamoyl)-5′,16′-dioxo-5-(trifluoromethyl)-3′,5′,6′,7′,8′,9′,10′,11′, 13a′,14′,14a′,15′,16′,16a′-tetradecahydro-1H,2H-spiro[[1,4]dioxino[2,3-c]quinoline-3,2′-cyclopropa[e]pyrrolo[1,2-a][1,4]diazacyclopentadecin]-6′-yl)carbamate]", "IC50": 0.011}, {"smiles": "COc1ccc2nc(C(F)F)c3c(c2n1)CC[C@]1(C[C@H]2C(=O)N[C@]4(C(=O)NS(=O)(=O)C5(C)CC5)C[C@H]4/C=C\\CCCCC[C@H](NC(=O)OC(C)(C)C)C(=O)N2C1)O3", "note": "[Example 12, tert-Butyl ((2R,6S,13aS,14aR,16aS,Z)-6′-(difluoromethyl)-2′-methoxy-14a-(((1-methylcyclopropyl)sulfonyl)carbamoyl)-5,16-dioxo-3,5,6,7,8,9,9′,10,10′,11,13a,14,14a, 15,16,16a-hexadecahydro-1H-spiro[cyclopropa[e]pyrrolo[1,2-a][1,4]diazacyclopentadecine-2,8′-pyrano[2,3-c][1,5]naphthyridin]-6-yl)carbamate]", "IC50": 0.007}, {"smiles": "COc1ccc2nc(C(C)C)c3c(c2c1)[C@H](F)C[C@]1(C[C@H]2C(=O)N[C@]4(C(=O)NS(=O)(=O)C5(C)CC5)C[C@H]4/C=C\\CCCCC[C@H](NC(=O)OC(C)(C)C)C(=O)N2C1)O3", "note": "[Example 32, tert-butyl ((1′R,2S,6S,13aS,14aR,16aS,Z)-1′-fluoro-5′-isopropyl-9′-methoxy-14a-(((1-methylcyclopropyl)sulfonyl)carbamoyl)-5,16-dioxo-1′,2′,3,5,6,7,8,9,10,11,13a,14, 14a,15,16,16a-hexadecahydro-1H-spiro[cyclopropa[e]pyrrolo[1,2-a][1,4]diazacyclopentadecine-2,3′-pyrano[2,3-c]quinolin]-6-yl)carbamate]", "IC50": 0.024}, {"smiles": "CC(C)(C)OC(=O)N[C@H]1CCCCC/C=C\\[C@@H]2C[C@@]2(C(=O)NS(=O)(=O)C2(C)CC2)NC(=O)[C@@H]2C[C@]3(CCc4c(c(C(F)(F)F)nc5ccc(OCCN6CCCCC6)cc45)O3)CN2C1=O", "note": "[Example 67, tert-Butyl ((2R,6S,13aS,14aR,16aS,Z)-14a-(((1-methylcyclopropyl)sulfonyl)carbamoyl)-5,16-dioxo-9′(2-(piperidin-1-yl)ethoxy)-5′-(trifluoromethyl)-1′,2′,3,5,6,7,8,9,10,11,13a,14,14a,15,16,16a-hexadecahydro-1H-spiro[cyclopropa[e]pyrrolo[1,2-a][1,4]diazacyclopentadecine-2,3′-pyrano[2,3-c]quinolin]-6-yl)carbamate]", "IC50": 0.021}, {"smiles": "Cc1nc2ccccc2c2c1O[C@]1(CC2)C[C@H]2C(=O)N[C@]3(C(=O)NS(=O)(=O)C4(C)CC4)C[C@H]3/C=C\\CCCCC[C@H](NC(=O)OC3CCN(C)CC3)C(=O)N2C1", "note": "[Example 117, 1-methylpiperidin-4-yl [(2R,6S,12Z,13aS,14aR,16aS)-5′-methyl-14a-{[(1-methylcyclopropyl)sulfonyl]carbamoyl}-5,16-dioxo-1,1′,2′,5,6,7,8,9,10,11,13a,14,14a,15,16,16a-hexadecahydrospiro[cyclopropa[e]pyrrolo[1,2-a][1,4]diazacyclopentadecine-2,3′-pyrano[2,3-c]quinolin]-6-yl]carbamate]", "IC50": 0.056}, {"smiles": "Cc1nc2ccc(OC(F)(F)F)cc2c2c1O[C@]1(CC2)C[C@H]2C(=O)N[C@]3(C(=O)NS(=O)(=O)C4(C)CC4)C[C@H]3/C=C\\CCCCC[C@H](NC(=O)OC3(C)CCCC3)C(=O)N2C1", "note": "[Example 209, 1-methylcyclopentyl [(2R,6S,12Z,13aS,14aR,16aS)-5′-methyl-14a-{[(1-methylcyclopropyl)sulfonyl]carbamoyl}-5,16-dioxo-9′-(trifluoromethoxy)-1,1′,2′,5,6,7,8,9,10,11,13a,14,14a,15,16,16a-hexadecahydrospiro[cyclopropa[e]pyrrolo[1,2-a][1,4]diazacyclopentadecine-2,3′-pyrano[2,3-c]quinolin]-6-yl]carbamate]", "IC50": 0.03}]}, {"target": "HCV NS3/4A protease genotype 1b (Hepatitis C virus genotype 1b, UniProt P26663)", "experiment": "HCV NS3/4A protease time-resolved fluorescence (TRF) assay, Ki against genotype 1b", "assay_type": "biochemical", "conditions": "IC50 [gt-1b] (nM), NS3/4A genotype 1b, enzyme 0.2 nM; K+ salt", "description": "as §1, §2, §3", "units": {"IC50": "nM"}, "values": [{"smiles": "COc1ccc2nc(C)c3c(c2c1)CC[C@]1(C[C@H]2C(=O)N[C@]4(C(=O)NS(=O)(=O)C5(C)CC5)C[C@H]4/C=C\\CCCCC[C@H](NC(=O)OC(C)(C)C)C(=O)N2C1)O3", "note": "[Example 9, tert-Butyl [(2R,6S,12Z,13aS,14aR,16aS)-9′-methoxy-5′-methyl-14a-{[(1-methylcyclopropyl)sulfonyl]carbamoyl}-5,16-dioxo-1,1′,2′,5,6,7,8,9,10,11,13a,14,14a,15, 16,16a-hexadecahydrospiro[cyclopropa[e]pyrrolo[1,2-a][1,4]diazacyclopentadecine-2,3′-pyrano[2,3-c]quinolin]-6-yl]carbamate]", "IC50": 0.006}, {"smiles": "COc1ccc2nc(C)c3c(c2c1)CC[C@]1(C[C@H]2C(=O)N[C@]4(C(=O)NS(=O)(=O)C5(C)CC5)C[C@H]4/C=C\\CCCCC[C@H](NC(=O)OC4(C)CCC4)C(=O)N2C1)O3", "note": "[Example 186, 1-methylcyclobutyl [(2R,6S,12Z,13aS,14aR,16aS)-9′-methoxy-5′-methyl-14a-{[(1-methylcyclopropyl)sulfonyl]carbamoyl}-5,16-dioxo-1,1′,2′,5,6,7,8,9,10,11,13a,14,14a,15,16,16a-hexadecahydrospiro[cyclopropa[e]pyrrolo[1,2-a][1,4]diazacyclopentadecine-2,3′-pyrano[2,3-c]quinolin]-6-yl]carbamate]", "IC50": 0.009}, {"smiles": "Cc1nc2cc(F)c(F)cc2c2c1O[C@]1(CC2)C[C@H]2C(=O)N[C@]3(C(=O)NS(=O)(=O)C4(C)CC4)C[C@H]3/C=C\\CCCCC[C@H](NC(=O)OC3CCCCC3)C(=O)N2C1", "note": "[Example 203, cyclohexyl [(2R,6S,12Z,13aS,14aR,16aS)-8′,9′-difluoro-5′-methyl-14a-{[(1-methylcyclopropyl)sulfonyl]carbamoyl}-5,16-dioxo-1,1′,2′,5,6,7,8,9,10,11,13a,14,14a,15,16,16a-hexadecahydrospiro[cyclopropa[e]pyrrolo[1,2-a][1,4]diazacyclopentadecine-2,3′-pyrano[2,3-c]quinolin]-6-yl]carbamate]", "IC50": 0.015}, {"smiles": "Cc1nc2cc(F)c(F)cc2c2c1O[C@]1(CC2)C[C@H]2C(=O)N[C@]3(C(=O)NS(=O)(=O)C4(C)CC4)C[C@H]3/C=C\\CCCCC[C@H](NC(=O)OC3CCC3)C(=O)N2C1", "note": "[Example 204, cyclobutyl [(2R,6S,12Z,13aS,14aR,16aS)-8′,9′-difluoro-5′-methyl-14a-{[(1-methylcyclopropyl)sulfonyl]carbamoyl}-5,16-dioxo-1,1′,2′,5,6,7,8,9,10,11,13a,14,14a,15,16,16a-hexadecahydrospiro[cyclopropa[e]pyrrolo[1,2-a][1,4]diazacyclopentadecine-2,3′-pyrano[2,3-c]quinolin]-6-yl]carbamate]", "IC50": 0.015}, {"smiles": "COc1ccc2nc(C)c3c(c2c1)CC[C@]1(C[C@H]2C(=O)N[C@]4(C(=O)NS(=O)(=O)C5(C)CC5)C[C@H]4/C=C\\CCCCC[C@H](NC(=O)OC4(C5CC5)CC4)C(=O)N2C1)O3", "note": "[Example 212, 1,1′-bi(cyclopropyl)-1-yl [(2R,6S,12Z,13aS,14aR,16aS)-9′-methoxy-5′-methyl-14a-{[(1-methylcyclopropyl)sulfonyl]carbamoyl}-5,16-dioxo-1,1′,2′,5,6,7,8,9,10,11,13a,14,14a,15,16,16a-hexadecahydrospiro[cyclopropa[e]pyrrolo[1,2-a][1,4]diazcyclopentadecine-2,3′-pyrano[2,3-c]quinolin]-6-yl]carbamate]", "IC50": 0.003}, {"smiles": "COc1ccc2nc(C)c3c(c2c1)CC[C@]1(C[C@H]2C(=O)N[C@]4(C(=O)NS(=O)(=O)C5(C)CC5)C[C@H]4/C=C\\CCCCC[C@H](NC(=O)OCC4CCC4)C(=O)N2C1)O3", "note": "[Example 213, cyclobutylmethyl [(2R,6S,12Z,13aS,14aR,16aS)-9′-methoxy-5′-methyl-14a-{[(1-methylcyclopropyl)sulfonyl]carbamoyl}-5,16-dioxo-1,1′,2′,5,6,7,8,9,10,11,13a,14,14a,15,16,16a-hexadecahydrospiro[cyclopropa[e]pyrrolo[1,2-a][1,4]diazacyclopentadecine-2,3′-pyrano[2,3-c]quinolin]-6-yl]carbamate]", "IC50": 0.004}]}]}
